From publication PMC6584114, “Metabolism of IMM-H004 and Its Pharmacokinetic-Pharmacodynamic Analysis in Cerebral Ischemia/Reperfusion Injured Rats” (Frontiers in Pharmacology, 2019)

Legend:
[1] = parameters: method as in Zhang et al., 2017; details: rat plasma and brain, 6 mg/kg; ref Zhang et al., 2017; cited from earlier work
[2] = tested on: rat liver microsomes (RLMs); assay: Kinetics of IMM-H004 demethylation (M1 and M2 formation) in rat liver microsomes; type: in vitro ADME; details: substrate IMM-H004
Protocol: (§1) To compare the metabolic capability of IMM-H004 demethylation in rat and human liver microsomes, the kinetics of M1 and M2 formation in HLMs or RLMs were determined. Enzyme kinetic experiments were performed in triplicate. The incubation mixtures contained HLM/RLM (1 mg protein/ml), IMM-H004 (0.1–1,800 μM), and NADPH (1.2 mM) in a final volume of 0.2 ml Tris-HCl buffer (50 mM, pH 7.4) containing 5 mM MgCl2. The reaction was incubated at 37°C for 20 min and stopped by adding 200 μL of ice-cold acetonitrile containing IS (100 ng/ml). After vortex-mixing and centrifugation, M1 and M2 in the supernatant were analyzed by LC-MS/MS.
(§2) The LC-MS/MS system consisted of Shimadzu 30A UPLC and API 4000 triple quadruple mass spectrometer (AB SCIEX, USA). Data acquisition and analysis were accomplished using Analyst 1.5.2 software. The analytes and IS were chromatographed by injection of 1 μL sample. The mobile phases consisted of solvent A (0.5% formic acid in water) and solvent B (0.5% formic acid in methanol) at a flow rate of 0.3 ml/min on an Eclipse Plus C18 column (2.1 mm × 50 mm, 3.5 μm, Agilent, USA), and the operating temperature was 40°C. The elution condition was 10% solvent B for 0.7 min, ascending to 98% B in 2.3 min, holding for 3.0 min and reequilibrating to 10% B within 0.1 min and maintained for 2.4 min (Jiang JW, 2018). The specific transitions monitored were 305→248 for IMM-H004, 291→234 for M1, 291→248 for M2, 481→305 for IMM-H004G, 385→305 for M4, and 260→183 for IS.

PC12 cells = assay: Neuroprotection in oxygen-glucose deprivation injured PC12 cells (MTT cell viability); type: cell-based; details: 1 and 10 μM, 24 h, MTT, vs model group
Protocol: The neuroprotective activity of IMM-H004 and IMM-H004G was evaluated on PC12 cells damaged by oxygen-glucose deprivation (OGD). PC12 cells were purchased from the American Type Culture Collection. Cultures were maintained at 37°C in 5% CO2 in a humidified incubator. For cell viability assay, PC12 cells were incubated in 96-well plates at a density of 5 × 10^4/ml for 24 h. In the sham group, PC12 cells were cultured in Dulbecco’s modified eagle medium supplemented with 5% fetal bovine serum and 5% equine serum (Gibco, USA). In the OGD group, PC12 cells were cultured in glucose-free Earle’s balanced salt solution supplemented with 15 mM Na2S2O4 for 2 h and then incubated with compounds of nerve growth factor (NGF, 10 μM), edaravone (10 μM, 50 μM), IMM-H004 (1 μM, 10 μM), and IMM-H004G (1 μM, 10 μM), respectively. After 24 h of incubation, MTT (5 mg/ml) was added into the cell cultures and incubated for an additional 4 h. Then the supernatant was removed and 100 μL DMSO was added. Absorbance was measured using an Ultramark microplate reader at a wavelength of 562 nm. The cell viability was expressed as a percentage of the absorbance density value of control cultures.

[3] = tested on: plasma malondialdehyde (MDA); assay: Plasma MDA suppression (PD) in MCAO/R rats; type: in vivo, rat; details: iv IMM-H004 citrate 10 mg/kg after reperfusion
Protocol: The plasma pharmacokinetics (PK) and pharmacodynamics (PD) of IMM-H004 and IMM-H004G were investigated in a cerebral ischemia-reperfusion rat model produced by middle cerebral artery occlusion/reperfusion (MCAO/R) after iv administration of IMM-H004. In brief, rats underwent a 1-h MCAO and then received IMM-H004 citrate (10 mg/kg, dissolved in saline to yield a concentration of 2 mg/ml) immediately after reperfusion, an effective dosing time as reported ([Zuo et al., 2015]; [Yang et al., 2017]). For sham surgery, all the arteries were exposed for the surgical period, but the filament was not inserted into the MCA. Blood samples were collected through external jugular vein cannula into heparinized tubes at 0.033, 0.167, 0.5, 1, 2, 4, 6, 8, 12, 24, 36, and 48 h postdose for IMM-H004 and IMM-H004G detection (50 μL of blood at each time point) and at 0.5, 1, 2, 4, 7, and 10 h postdose for malondialdehyde (MDA) detection (80 μL of blood at each time point). Plasma was immediately separated by centrifugation at 900×g for 5 min. Plasma concentrations of IMM-H004 and IMM-H004G in ischemia-reperfusion rats were determined by LC-MS/MS analysis. The PK parameters were calculated by noncompartmental analysis using WinNonlin Version 6.1 (Pharsight, Mountain View, CA). Plasma MDA concentrations in ischemia-reperfusion and sham rats within 24 h were estimated by enzyme-linked immunosorbent assay.

[4] = tested on: human liver microsomes (HLMs); assay: Kinetics of IMM-H004 demethylation (M1 and M2 formation) in human liver microsomes; type: in vitro ADME; details: substrate IMM-H004
Protocol: as §1, §2

COc1cc(O)cc2oc(=O)c(N3CCN(C)CC3)c(C)c12 [IMM-H004, 7-hydroxy-5-methoxy-4-methyl-3-(4-methylpiperazin-1-yl)-coumarin]
elimination half-life (t 1/2β) [1]: 11.4 min
K m of M1 formation (6-demethylation) [2]: 1,244.0 μM
K m of M2 formation (N-demethylation) [2]: 111.9 µM
V max of M1 formation (6-demethylation) [2]: 1.34 nmol/min/mg protein
V max of M2 formation (N-demethylation) [2]: 0.12 nmol/min/mg protein
cell viability of OGD-injured PC12 cells (PC12 cells): significant (p < 0.05) preservation of viability
duration of plasma MDA lowering after administration [3]: at least 10 h
effect on plasma MDA level ([3]; vs MCAO/R group): significantly lower the increased MDA level at 2 h
K m of M1 formation (6-demethylation) [4]: 2,935.0 μM
K m of M2 formation (N-demethylation) [4]: 491.4 µM
V max of M1 formation (6-demethylation) [4]: 1.99 nmol/min/mg protein
V max of M2 formation (N-demethylation) [4]: 0.07 nmol/min/mg protein
